The values that follow come from patent publication US20160145247A1, “Aminomethyl-Biaryl Derivatives Complement Factor D inhibitors and uses thereof” (NOVARTIS AG, priority 2013, published 2016).

Broadly, the IC50 is the concentration needed to halve the response being measured.

Where “and” joins values, the source holds several entries; their conditions need not be identical. Identical values can stand only once.

T1 sequence (P00746 26-253): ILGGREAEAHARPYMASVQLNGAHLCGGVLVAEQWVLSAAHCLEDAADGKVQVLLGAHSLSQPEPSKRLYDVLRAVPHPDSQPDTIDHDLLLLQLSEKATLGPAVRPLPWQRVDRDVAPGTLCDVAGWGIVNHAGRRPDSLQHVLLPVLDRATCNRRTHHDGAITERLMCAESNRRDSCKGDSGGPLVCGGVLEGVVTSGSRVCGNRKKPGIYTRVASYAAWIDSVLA

The assay concerns the target T1, factor D (Homo sapiens, UniProt P00746).
T1 construct: made in house; host or cells: E. coli
Nature of the assay: factor D inhibition assay of Biological Example 2. It counts as biochemical.
On to `COCc1cc(COc2ccccc2CC(=O)O)cc(-c2cccc(C(N)CF)c2F)c1` (racemic) [Example 205-B, (±)-2-(2-((3′-(1-Amino-2-fluoroethyl)-2′-fluoro-5-(methoxymethyl)-[1,1′-biphenyl]-3-yl)methoxy)phenyl)acetic acid], for which the IC50 was 10 nM.

The compound `C[C@@H](N)c1cccc(-c2cc(COc3ccccc3CC(=O)O)cc(C(C)(C)O)c2)c1` [Example 120-H] displayed an IC50 of 10 nM.

`C[C@H](N)c1cccc(-c2cc(CCc3ccncc3)cc(COc3ccccc3CC(=O)O)c2)c1F` [Example 216-O]: the IC50 is 78 nM.

Regarding `Cn1nc(C2CC2)cc1Nc1cc(C(=O)Nc2ccccc2CC(=O)O)cc(-c2cc(F)cc(CN)c2)c1` [Example 78-B, 2-(2-(3′-(Aminomethyl)-5-((3-cyclopropyl-1-methyl-1H-pyrazol-5-yl)amino)-5′-fluoro-[1,1′-biphenyl]-3-ylcarboxamido)phenyl)acetic acid], the IC50 came to 22 nM.

`CCC[C@@H](N)c1cccc(-c2cccc(COc3ccccc3CC(=O)O)c2)c1F` [Example 195-B, (R)-2-(2-((3′-(1-Aminobutyl)-2′-fluoro-[1,1′-biphenyl]-3-yl)methoxy)phenyl)acetic acid]: 107 nM corresponded to half-maximal inhibition (IC50).

For the compound `COC[C@@H](N)c1cccc(-c2cccc(COc3ccccc3CC(=O)O)c2)c1` [Example 169, (S)-2-(2-((3′-(1-Amino-2-methoxyethyl)-[1,1′-biphenyl]-3-yl)methoxy)phenyl)acetic acid], half-maximal inhibition (IC50) required 33 nM.

As for `CCC[C@@H](N)c1cccc(-c2cc(COC)cc(COc3ccccc3CC(=O)O)c2)c1` [Example 118, (R)-2-(2-((3′-(1-Aminobutyl)-5-(methoxymethyl)-[1,1′-biphenyl]-3-yl)methoxy)phenyl)acetic acid], it took 67 nM to reach half-maximal inhibition (IC50).

With `C[C@@H](N)c1cccc(-c2cc(CNc3ccn(C)n3)cc(COc3ccccc3CC(=O)O)c2)c1F` [Example 216-AF], the IC50 stood at 16 nM.

`N#Cc1ccc(COc2ccccc2CC(=O)O)cc1-c1cccc(CN)c1` [Example 289, 2-(2-((3′-(aminomethyl)-6-cyano-[1,1′-biphenyl]-3-yl)methoxy)phenyl)acetic acid] displayed an IC50 of 850 nM.

The compound `COc1c(C(=O)Nc2ccccc2CC(=O)O)cccc1-c1cccc(CN)c1` [Example 91, 2-(2-(3′-(Aminomethyl)-2-methoxy-[1,1′-biphenyl]-3-ylcarboxamido)phenyl)acetic acid] returned a 50% inhibitory concentration (IC50) of 22300 nM.

`NCc1cc(F)cc(-c2cccc(C(=O)Nc3ccc(F)cc3CC(=O)O)c2)c1` [Example 21-J] returned an IC50 of 517 nM.

Turning to `NCc1cccc(-c2cccc(C#Cc3ccccc3CC(=O)O)c2)c1` [Example 16-C, 2-(2-((3′-(Aminomethyl)-[1,1′-biphenyl]-3-yl)ethynyl)phenyl)acetic acid], inhibition was half-maximal at 338 nM (IC50).

`C[C@@H](N)c1cccc(-c2cc(COc3ccccc3CC(=O)O)cc(C(O)C(F)(F)F)c2)c1` (mixture of isomers) [116-H a), 2-(2-((3′-((R)-1-aminoethyl)-5-(2,2,2-trifluoro-1-hydroxyethyl)-[1,1′-biphenyl]-3-yl)methoxy)phenyl)acetic acid]: inhibition was half-maximal at 1 nM (IC50).

Consider `C[C@@H](N)c1cccc(-c2cc(COc3ccccc3CC(=O)O)cc(OCC3(C)CC3)c2)c1F` [Example 259-E, (R)-2-(2-((3′-(1-aminoethyl)-2′-fluoro-5-((1-methylcyclopropyl)methoxy)-[1,1′-biphenyl]-3-yl)methoxy)phenyl)acetic acid], for which the IC50 stood at 22 nM.

In turn, `NCc1cccc(-c2cccc(OCc3ccccc3CC(=O)O)n2)c1` [Example 99-C, 2-(2-(((6-(3-(Aminomethyl)phenyl)pyridin-2-yl)oxy)methyl)phenyl)acetic acid] yielded an IC50 of 1850 nM.

With `C[C@@H](N)c1cccc(-c2cc(COc3ccccc3CC(=O)O)cc(NC3CCCC3)c2)c1F` [Example 216-U], the IC50 is 5 nM.

`NCc1cccc(-c2cc(CNC(c3ccccc3)C(F)(F)F)cc(COc3ccccc3CC(=O)O)c2)c1` (stereo not shown) [Example 286-E, 2-(2-((3′-(aminomethyl)-5-(((2,2,2-trifluoro-1-phenylethyl)amino)methyl)-[1,1′-biphenyl]-3-yl)methoxy)phenyl)acetic acid] returned an IC50 of 6 nM.

Consider `COCc1cc(COc2ccccc2CC(=O)O)cc(-c2cccc([C@H](C)N)c2F)c1` [Example 120-I], for which 25 nM corresponded to half-maximal inhibition (IC50).

Regarding `C[C@@H](N)c1cccc(-c2cc(NCC3CC3)c3c(c2)C(Oc2ccccc2CC(=O)O)CCO3)c1F` (stereo partly shown) [Example 216-X], the IC50 is 14 nM.

In turn, `NCc1cccc(-c2cc(COc3ccccc3CC(=O)O)cc(OC[C@H]3CCCO3)c2)c1F` [Example 234-B, (R)-2-(2-((3′-(aminomethyl)-2′-fluoro-5-((tetrahydrofuran-2-yl)methoxy)-[1,1′-biphenyl]-3-yl)methoxy)phenyl)acetic acid] registered an IC50 of 4 nM.

`N[C@H](CO)c1cccc(-c2cc(COc3ccccc3CC(=O)O)cc(OC[C@H]3CCCO3)c2)c1F` [Example 231-F, 2-(2-((3′-((S)-1-amino-2-hydroxyethyl)-2′-fluoro-5-(((R)-tetrahydrofuran-2-yl)methoxy)-[1,1′-biphenyl]-3-yl)methoxy)phenyl)acetic acid] returned an IC50 of 9 nM.

Turning to `N[C@H](CF)c1cccc(-c2cc(CNCC(F)(F)F)cc(COc3ccccc3CC(=O)O)c2)c1` [Example 284-B, (S)-2-(2-((3′-(1-amino-2-fluoroethyl)-5-(((2,2,2-trifluoroethyl)amino)methyl)-[1,1′-biphenyl]-3-yl)methoxy)phenyl)acetic acid], the IC50 was 228 nM.

For `O=C(O)Cc1ccccc1OCc1cccc(-c2cccc(-c3nnn[nH]3)c2)c1` [Example 191, 2-(2-((3′-(1H-Tetrazol-5-yl)-[1,1′-biphenyl]-3-yl)methoxy)phenyl)acetic acid], the IC50 was 20500 nM and 20800 nM.

The compound `C[C@@H](N)c1cccc(-c2cc(COc3ccccc3CC(=O)O)cc(OCc3ccncn3)c2)c1F` [Example 214-J] registered an IC50 of 9 nM.

For the compound `C[C@@H](N)c1cccc(-c2ccnc(COc3ccccc3CC(=O)O)c2)c1` [Example 180, (R)-2-(2-((4-(3-(1-Aminoethyl)phenyl)pyridin-2-yl)methoxy)phenyl)acetic acid], half-maximal inhibition (IC50) required 149 nM.

Regarding `N[C@H](CO)c1cccc(-c2ccc3c(c2)C(Oc2ccccc2CC(=O)O)CCC3)c1` (mixture of isomers) [Example 181, 2-(2-((7-(3-((S)-1-Amino-2-hydroxyethyl)phenyl)-1,2,3,4-tetrahydronaphthalen-1-yl)oxy)phenyl)acetic acid (mixture of diastereomers)], the IC50 stood at 8 nM.

`COc1cc(COc2ccccc2CC(=O)O)cc(-c2cccc([C@@H](C)N)c2F)c1` [Example 214-I] registered an IC50 of 7 nM.

For `NCc1cc(F)cc(-c2cc(NCC3CCOCC3)cc(C(=O)Nc3ccccc3CC(=O)O)c2)c1` [Example 79-E], the IC50 was 12 nM.

`C[C@H](N)c1cccc(-c2cc(CCCF)cc(COc3ccccc3CC(=O)O)c2)c1F` [Example 270, (S)-2-(2-((3′-(1-aminoethyl)-2′-fluoro-5-(3-fluoropropyl)-[1,1′-biphenyl]-3-yl)methoxy)phenyl)acetic acid]: the midpoint of inhibition, the IC50, lay at 11 nM.

On to `C[C@H](N)c1cccc(-c2cc(COc3ccccc3CC(=O)O)cc(NCC3CCCC3)c2)c1F` [Example 216-C], for which the IC50 came to 6 nM.

On to `Cc1cc(COc2ccccc2CC(=O)O)cc(-c2cccc([C@H](N)CO)c2)c1` [Example 112-B, (S)-2-(2-((3′-(1-Amino-2-hydroxyethyl)-5-methyl-[1,1′-biphenyl]-3-yl)methoxy)phenyl)acetic acid], for which the IC50 turned out to be 7 nM.

Turning to `C[C@@H](N)c1cccc(-c2cc(CNC3CCOC3)cc(COc3ccccc3CC(=O)O)c2)c1F` (stereo partly shown) [Example 216-AG], the IC50 worked out at 24 nM.

Consider `CCc1ccc(CC(=O)O)c(NC(=O)c2cccc(-c3cc(F)cc(CN)c3)n2)c1` [Example 21-O], for which 12 nM corresponded to half-maximal inhibition (IC50).

Consider `C[C@@H](O)[C@@H](N)c1cccc(-c2cccc(COc3ccccc3CC(=O)O)c2)c1` [Example 190-G], for which the IC50 was determined as 122 nM.

With `CC(O)c1cc(COc2ccccc2CC(=O)O)cc(-c2cccc([C@H](N)CO)c2)c1` (mixture of isomers) [116-E a), 2-(2-((3′-((S)-1-amino-2-hydroxyethyl)-5-(1-hydroxyethyl)-[1,1′-biphenyl]-3-yl)methoxy)phenyl)acetic acid], 9 nM corresponded to half-maximal inhibition (IC50).

As for `C[C@@H](N)c1cccc(-c2cc(COc3ccccc3CC(=O)O)cc(NCc3ccccn3)c2)c1F` [Example 216-T], half-maximal inhibition (IC50) was put at 9 nM.

Turning to `NCc1cccc(-c2cc(COc3ccccc3CC(=O)O)ccc2F)c1F` [Example 137, 2-(2-((3′-(Aminomethyl)-2′,6-difluoro-[1,1′-biphenyl]-3-yl)methoxy)phenyl)acetic acid], the IC50 turned out to be 21 nM.

In the case of `NCc1cccc(-c2cc(COc3ccccc3CC(=O)O)cc(-c3cc4ccccc4[nH]3)c2)c1` [Example 209-A], half-maximal inhibition (IC50) required 3 nM.

In turn, `NCc1cccc(-c2cc(COc3ccccc3CC(=O)O)cc(OC[C@H]3CCCO3)c2)c1` [Example 135, (R)-2-(2-((3′-(Aminomethyl)-5-((tetrahydrofuran-2-yl)methoxy)-[1,1′-biphenyl]-3-yl)methoxy)phenyl)acetic acid] came in with an IC50 of 5 nM.

Compound `CCC[C@@H](N)c1cccc(-c2cc(CO)cc(COc3ccccc3CC(=O)O)c2)c1` [Example 117-B, (R)-2-(2-((3′-(1-Aminobutyl)-5-(hydroxymethyl)-[1,1′-biphenyl]-3-yl)methoxy)phenyl)acetic acid] returned an IC50 of 83 nM.

For the compound `NCc1cc(F)cc(-c2cccc(C(=O)Nc3ccc(Br)cc3CC(=O)O)c2)c1` [Example 18-B, 2-(2-(3′-(Aminomethyl)-5′-fluoro-[1,1′-biphenyl]-3-ylcarboxamido)-5-bromophenyl)acetic acid], the IC50 turned out to be 8790 nM.

`NCc1ccc(F)c(-c2cccc(COc3ccccc3CC(=O)O)c2)c1` [Example 138-E]: the IC50 worked out at 1990 nM.

Compound `CCC[C@@H](N)c1cccc(-c2cc(COc3ccccc3CC(=O)O)cc(C3CC3)c2)c1F` [Example 202-B, (R)-2-(2-((3′-(1-Aminobutyl)-5-cyclopropyl-2′-fluoro-[1,1′-biphenyl]-3-yl)methoxy)phenyl)acetic acid] had an IC50 of 33 nM.
